In patent US20260007681A1, “INDOLE DERIVATIVES AS ESTROGEN RECEPTOR DEGRADERS” (REGENTS OF THE UNIVERSITY OF MICHIGAN, priority 2022, published 2026):
Where two headings read alike, the source gives them in different places.

How the values were obtained:
CRBN/DDB1 = CRBN/DDB1 (Homo sapiens (Human), UniProt Q96SW2); format: binding; settings: His tagged CRBN+DDB-DLS7+CXU4, Cy5-labeled Thalidomide probe, one hour incubation; read-out: CRBN HTRF IC50
Procedure: The binding potency was determined using H-TRF assay technology (Perkin Elmer). Compounds were serially diluted in DMSO and 0.2 μL volume was transferred to white 384-well plate.

ER in T47D cells = ER in T47D cells (Homo sapiens (Human), UniProt P03372); test: In-cell western (ICW) ER degradation assay in T47D cells (Compounds A1-A70); format: cell-based; settings: for DC50: ER degradation, 0.02 to 300 nM; for Dmax: T47D, read-out: T47D ICW Dmax (%)
Procedure: (§1) ERa degradative activity of compounds can be assessed in MCF-7 and T47D Cells. MCF-7 and T47D cell are seeded and are subsequently treated with the compounds at certain concentrations (e.g., 0.02 to 300 nM). DMSO can be used as vehicle control. Cells are fixed and are blocked with Intercept (PBS) Blocking Buffer (e.g., Li—COR, Odyssey Blocking Buffer), and are stained with ER (e.g., 1:500, Cell signaling) primary antibody for overnight at cold room. Secondary Antibody (e.g., IRDye 800CW Goat anti-Rabbit IgG) and CellTag 700 Stain are added in Intercept (PBS) Blocking Buffer. Finally, cell plate is placed in incubator to dry. Image and signal are captured on Odyssey® DLx Imaging System.
(§2) Day 3: After 16 hrs of compounds treatment, cells were fixed by 4% PFA and permeabilized with elution buffer (0.1% Triton X-100 in 1% PBS Solution). Subsequently, cells were blocked with Intercept (PBS) Blocking Buffer (Li—COR, Odyssey Blocking Buffer), and were stained with ER (1:500, Cell signaling) primary antibody for overnight at cold room.
(§3) Day 4: Remove the buffer, add IRDye 800CW Goat anti-Rabbit IgG Secondary Antibody (1:2000) and CellTag 700 Stain (1:500) in Intercept (PBS) Blocking Buffer. Finally, cell plate is placed in incubator to dry. Image and signal were captured on Odyssey® DLx Imaging System.

ER in MCF-7 cells = ER in MCF-7 cells (Homo sapiens (Human), UniProt P03372); test: In-cell western (ICW) ER degradation assay in MCF-7 cells (Compounds A1-A70); format: cell-based; settings: for DC50: ER degradation, MCF-7 cells, 16 hrs treatment, 0.02 to 300 nM, read-out: MCF7 ICW DC50; for Dmax: MCF7, read-out: MCF7 ICW Dmax (%)
Procedure: as §1, §2, §3

CRBN/DDB1, sequence (Q96SW2 whole entry): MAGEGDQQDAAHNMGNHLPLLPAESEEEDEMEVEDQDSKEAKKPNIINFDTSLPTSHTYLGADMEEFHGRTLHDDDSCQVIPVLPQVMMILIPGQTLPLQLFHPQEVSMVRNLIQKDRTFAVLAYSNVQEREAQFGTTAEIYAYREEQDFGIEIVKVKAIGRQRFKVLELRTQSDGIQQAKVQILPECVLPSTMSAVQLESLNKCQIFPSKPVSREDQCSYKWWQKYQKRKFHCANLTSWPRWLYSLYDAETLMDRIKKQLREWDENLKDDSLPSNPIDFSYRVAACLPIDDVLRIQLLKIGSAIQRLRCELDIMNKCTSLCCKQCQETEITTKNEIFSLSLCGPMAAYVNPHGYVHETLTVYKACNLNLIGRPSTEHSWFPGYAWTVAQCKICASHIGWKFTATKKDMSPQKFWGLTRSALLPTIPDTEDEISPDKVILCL
CRBN/DDB1, sequence (Q16531 whole entry partner): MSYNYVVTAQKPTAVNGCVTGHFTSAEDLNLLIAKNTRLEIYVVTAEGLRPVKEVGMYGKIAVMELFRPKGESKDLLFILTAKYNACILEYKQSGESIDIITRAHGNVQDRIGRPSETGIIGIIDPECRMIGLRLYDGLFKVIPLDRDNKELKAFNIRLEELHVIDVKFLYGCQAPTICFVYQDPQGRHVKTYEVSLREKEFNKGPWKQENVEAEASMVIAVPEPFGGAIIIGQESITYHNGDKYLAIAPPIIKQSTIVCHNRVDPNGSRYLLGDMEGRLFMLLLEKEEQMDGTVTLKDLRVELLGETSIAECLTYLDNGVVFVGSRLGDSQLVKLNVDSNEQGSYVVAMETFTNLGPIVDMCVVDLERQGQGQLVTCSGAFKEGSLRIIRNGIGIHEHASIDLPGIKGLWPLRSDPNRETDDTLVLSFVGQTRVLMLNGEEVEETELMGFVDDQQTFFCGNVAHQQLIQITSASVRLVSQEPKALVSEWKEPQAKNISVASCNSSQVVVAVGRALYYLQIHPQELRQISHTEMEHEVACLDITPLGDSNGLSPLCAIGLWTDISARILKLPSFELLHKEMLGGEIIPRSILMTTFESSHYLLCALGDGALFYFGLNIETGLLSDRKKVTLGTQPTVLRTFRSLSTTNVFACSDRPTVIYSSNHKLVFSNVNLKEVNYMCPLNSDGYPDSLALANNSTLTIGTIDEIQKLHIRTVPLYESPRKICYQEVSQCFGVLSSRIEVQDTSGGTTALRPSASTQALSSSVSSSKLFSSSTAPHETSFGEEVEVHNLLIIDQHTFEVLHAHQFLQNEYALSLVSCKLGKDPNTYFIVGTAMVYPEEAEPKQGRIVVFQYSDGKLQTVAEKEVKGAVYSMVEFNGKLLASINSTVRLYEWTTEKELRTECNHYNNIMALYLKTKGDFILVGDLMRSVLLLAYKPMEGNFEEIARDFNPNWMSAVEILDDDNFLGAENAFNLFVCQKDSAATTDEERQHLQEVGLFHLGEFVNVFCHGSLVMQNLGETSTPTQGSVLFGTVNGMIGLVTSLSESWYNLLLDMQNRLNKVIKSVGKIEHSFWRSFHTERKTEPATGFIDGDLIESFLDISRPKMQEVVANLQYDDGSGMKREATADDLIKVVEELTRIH
ER in MCF-7 cells, sequence (P03372 whole entry): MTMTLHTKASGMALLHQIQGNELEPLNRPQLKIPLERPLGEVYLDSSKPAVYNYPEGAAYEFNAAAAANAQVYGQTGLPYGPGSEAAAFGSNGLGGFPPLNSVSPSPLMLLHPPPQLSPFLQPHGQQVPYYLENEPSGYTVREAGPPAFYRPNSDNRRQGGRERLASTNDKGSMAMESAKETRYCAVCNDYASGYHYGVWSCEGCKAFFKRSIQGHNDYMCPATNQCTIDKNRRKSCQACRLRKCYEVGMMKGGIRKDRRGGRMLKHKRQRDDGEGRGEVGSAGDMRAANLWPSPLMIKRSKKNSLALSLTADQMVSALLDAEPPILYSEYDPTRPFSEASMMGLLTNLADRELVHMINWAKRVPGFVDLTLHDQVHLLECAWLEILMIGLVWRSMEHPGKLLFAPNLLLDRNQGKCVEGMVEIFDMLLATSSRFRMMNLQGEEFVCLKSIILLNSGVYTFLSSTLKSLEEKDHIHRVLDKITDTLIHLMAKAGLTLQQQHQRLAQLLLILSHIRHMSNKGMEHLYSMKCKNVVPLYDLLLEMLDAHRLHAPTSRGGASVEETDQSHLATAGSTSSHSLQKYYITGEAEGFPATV
ER in T47D cells, sequence (P03372 whole entry): as above

## C[C@@H]1Cc2c([nH]c3ccccc23)[C@@H](c2cnc(N3CCC(N4CCN(c5ccc(NC6CCC(=O)NC6=O)cc5F)CC4)CC3)nc2)N1CC(F)F (stereo partly drawn) [Compound A1, 3-((4-(4-(1-(5-((1R,3R)-2-(2,2-difluoroethyl)-3-methyl-2,3,4,9-tetrahydro-1H-pyrido[3,4-b]indol-1-yl)pyrimidin-2-yl)piperidin-4-yl)piperazin-1-yl)-3-fluorophenyl)amino)piperidine-2,6-dione]
CRBN/DDB1
  IC50: 500 to 5000 nM

## C[C@@H]1Cc2c([nH]c3ccccc23)[C@@H](c2cnc(N3CCC(N4CCC(c5ccc(NC6CCC(=O)NC6=O)cc5F)CC4)CC3)nc2)N1CC(F)F (stereo partly drawn) [Compound A3, 3-((4-(1′-(5-((1R,3R)-2-(2,2-difluoroethyl)-3-methyl-2,3,4,9-tetrahydro-1H-pyrido[3,4-b]indol-1-yl)pyrimidin-2-yl)-[1,4′-bipiperidin]-4-yl)-3-fluorophenyl)amino)piperidine-2,6-dione]
CRBN/DDB1
  IC50: 50 to 500 nM

## C[C@@H]1Cc2c([nH]c3ccccc23)[C@@H](c2cnc(N3C[C@@H]4[C@@H](CN5CCN6c7cc8c(cc7OC[C@@H]6C5)C(=O)N(C5CCC(=O)NC5=O)C8)[C@@H]4C3)nc2)N1CC(F)F (stereo partly drawn) [Compound A4, (S)-3-((S)-3-(((1R,5S,6S)-3-(5-((1R,3R)-2-(2,2-difluoroethyl)-3-methyl-2,3,4,9-tetrahydro-1H-pyrido[3,4-b]indol-1-yl)pyrimidin-2-yl)-3-azabicyclo[3.1.0]hexan-6-yl)methyl)-8-oxo-1,2,3,4,4a,5,8,10-octahydro-9H-pyrazino[1′,2′:4,5][1,4]oxazino[2,3-f]isoindol-9-yl)piperidine-2,6-dione]
CRBN/DDB1
  IC50: 500 to 5000 nM

## C[C@@H]1Cc2c([nH]c3ccccc23)[C@@H](c2cnc(N3CCC4(CC3)CC(CN3CCN5c6ccc7c(c6OC[C@@H]5C3)CN(C3CCC(=O)NC3=O)C7=O)C4)nc2)N1CC(F)F (stereo partly drawn) [Compound A6, 3-((S)-7-((7-(5-((1R,3R)-2-(2,2-difluoroethyl)-3-methyl-2,3,4,9-tetrahydro-1H-pyrido[3,4-b]indol-1-yl)pyrimidin-2-yl)-7-azaspiro[3.5]nonan-2-yl)methyl)-1-oxo-1,3,5,5a,6,7,8,9-octahydro-2H-pyrazino[1′,2′:4,5][1,4]oxazino[2,3-e]isoindol-2-yl)piperidine-2,6-dione]
CRBN/DDB1
  IC50: < 50 nM

## COc1ccc(C(=O)N2CCC(CN3CCN(c4ncc([C@@H]5c6[nH]c7ccccc7c6C[C@@H](C)N5CC(F)F)cn4)CC3)CC2)cc1N1CCC(=O)NC1=O [Compound A7, 1-(5-(4-((4-(5-((1R,3R)-2-(2,2-difluoroethyl)-3-methyl-2,3,4,9-tetrahydro-1H-pyrido[3,4-b]indol-1-yl)pyrimidin-2-yl)piperazin-1-yl)methyl)piperidine-1-carbonyl)-2-methoxyphenyl) dihydropyrimidine-2,4(1H,3H)-dione]
CRBN/DDB1
  IC50: 500 to 5000 nM

## CS(=O)(=O)N1CCc2c([nH]c3ccccc23)[C@H]1c1c(F)cc(N2CCC3(CCN(C(=O)CN4Cc5cc6c(cc5C4)C(=O)N(C4CCC(=O)NC4=O)C6=O)CC3)CC2)cc1F (stereo partly drawn) [Compound A8, 6-(2-(9-(3,5-difluoro-4-((R)-2-(methylsulfonyl)-2,3,4,9-tetrahydro-1H-pyrido[3,4-b]indol-1-yl)phenyl)-3,9-diazaspiro[5.5]undecan-3-yl)-2-oxoethyl)-2-(2,6-dioxopiperidin-3-yl)-6,7-dihydropyrrolo[3,4-f]isoindole-1,3(2H,5H)-dione]
CRBN/DDB1
  IC50: > 5000 nM

## C[C@@H]1Cc2c([nH]c3ccccc23)[C@@H](c2cnc(N3C[C@@H]4[C@H](CN5CCN6c7cc8c(cc7OC[C@@H]6C5)C(=O)N([C@H]5CCC(=O)NC5=O)C8)[C@@H]4C3)nc2)N1CC(C)(C)F [Compound A13, (S)-3-((S)-3-(((1R,5S,6R)-3-(5-((1R,3R)-2-(2-fluoro-2-methylpropyl)-3-methyl-2,3,4,9-tetrahydro-1H-pyrido[3,4-b]indol-1-yl)pyrimidin-2-yl)-3-azabicyclo[3.1.0]hexan-6-yl)methyl)-8-oxo-1,2,3,4,4a,5,8,10-octahydro-9H-pyrazino[1′,2′:4,5][1,4]oxazino[2,3-f]isoindol-9-yl)piperidine-2,6-dione]
CRBN/DDB1
  IC50: 50 to 500 nM

## C[C@@H]1Cc2c([nH]c3ccccc23)[C@@H](c2cnc(N3CC[C@@H](CN4CCN5c6ccc7c(c6OC[C@@H]5C4)CN(C4CCC(=O)NC4=O)C7=O)C3)nc2)N1CC(F)F (stereo partly drawn) [Compound A14, 3-((S)-7-(((S)-1-(5-((1R,3R)-2-(2,2-difluoroethyl)-3-methyl-2,3,4,9-tetrahydro-1H-pyrido[3,4-b]indol-1-yl)pyrimidin-2-yl)pyrrolidin-3-yl)methyl)-1-oxo-1,3,5,5a,6,7,8,9-octahydro-2H-pyrazino[1′,2′:4,5][1,4]oxazino[2,3-e]isoindol-2-yl)piperidine-2,6-dione]
CRBN/DDB1
  IC50: < 50 nM

## Cc1nn(C2CCC(=O)NC2=O)c2ccc(N3CCN(CC4CC5(CCN(c6ncc([C@@H]7c8[nH]c9ccccc9c8C[C@@H](C)N7CC(C)(C)F)cn6)CC5)C4)CC3)cc12 (stereo partly drawn) [Compound A15, 3-(5-(4-((7-(5-((1R,3R)-2-(2-fluoro-2-methylpropyl)-3-methyl-2,3,4,9-tetrahydro-1H-pyrido[3,4-b]indol-1-yl)pyrimidin-2-yl)-7-azaspiro[3.5]nonan-2-yl)methyl)piperazin-1-yl)-3-methyl-1H-indazol-1-yl)piperidine-2,6-dione]
CRBN/DDB1
  IC50: < 50 nM

## C[C@@H]1Cc2c([nH]c3ccccc23)[C@@H](c2cnc(N3CCC4(CC3)CC(CN3CCN(c5ccc(NC6CCC(=O)NC6=O)cc5F)CC3)C4)nc2)N1CC(F)F (stereo partly drawn) [Compound A16, 3-((4-(4-((7-(5-((1R,3R)-2-(2,2-difluoroethyl)-3-methyl-2,3,4,9-tetrahydro-1H-pyrido[3,4-b]indol-1-yl)pyrimidin-2-yl)-7-azaspiro[3.5]nonan-2-yl)methyl)piperazin-1-yl)-3-fluorophenyl)amino)piperidine-2,6-dione]
CRBN/DDB1
  IC50: 50 to 500 nM

## CS(=O)(=O)N1CCc2c([nH]c3ccccc23)[C@H]1c1c(F)cc(N2CCC(CN3CCN4c5cc6c(cc5OC[C@@H]4C3)C(=O)N([C@H]3CCC(=O)NC3=O)C6)CC2)cc1F [Compound A17, (S)-3-((S)-3-((1-(3,5-difluoro-4-((R)-2-(methylsulfonyl)-2,3,4,9-tetrahydro-1H-pyrido[3,4-b]indol-1-yl)phenyl)piperidin-4-yl)methyl)-8-oxo-1,2,3,4,4a,5,8,10-octahydro-9H-pyrazino[1′,2′:4,5][1,4]oxazino[2,3-f]isoindol-9-yl)piperidine-2,6-dione]
CRBN/DDB1
  IC50: > 5000 nM

## C[C@@H]1Cc2c([nH]c3ccccc23)[C@@H](c2cnc(OC3CC(C(=O)N4CCC(N5Cc6cc7c(cc6C5)C(=O)N(C5CCC(=O)NC5=O)C7=O)CC4)C3)nc2)N1CC(F)F (stereo partly drawn) [Compound A18, 6-(1-((1R,3r)-3-((5-((1R,3R)-2-(2,2-difluoroethyl)-3-methyl-2,3,4,9-tetrahydro-1H-pyrido[3,4-b]indol-1-yl)pyrimidin-2-yl)oxy)cyclobutane-1-carbonyl)piperidin-4-yl)-2-(2,6-dioxopiperidin-3-yl)-6,7-dihydropyrrolo[3,4-f]isoindole-1,3(2H,5H)-dione]
CRBN/DDB1
  IC50: 50 to 500 nM

## COc1cc(N2CCC(CN3CCN4c5cc6c(cc5OC[C@H]4C3)C(=O)N([C@@H]3CCC(=O)NC3=O)C6)CC2)ccc1[C@@H]1c2[nH]c3ccccc3c2C[C@@H](C)N1CC(F)F [Compound A48, (R)-3-((R)-3-((1-(4-((1R,3R)-2-(2,2-difluoroethyl)-3-methyl-2,3,4,9-tetrahydro-1H-pyrido[3,4-b]indol-1-yl)-3-methoxyphenyl)piperidin-4-yl)methyl)-8-oxo-1,2,3,4,4a,5,8,10-octahydro-9H-pyrazino[1′,2′:4,5][1,4]oxazino[2,3-f]isoindol-9-yl)piperidine-2,6-dione]
ER in T47D cells; T47D cells, 16 hrs treatment
  DC50: < 1 nM
ER in T47D cells; maximal ER degradation, T47D cells, 16 hrs treatment
  Dmax: > 75%
ER in MCF-7 cells
  DC50: < 1 nM
  Dmax: > 75%

## C[C@H]1Cc2c([nH]c3ccccc23)[C@H](c2cnc(N3CCC4(CC3)C[C@@H](CN3CCN5c6cc7c(cc6OC[C@@H]5C3)C(=O)N([C@@H]3CCC(=O)NC3=O)C7)CO4)nc2)N1CC(F)F [Compound A68, (R)-3-((S)-3-(((S)-8-(5-((1S,3S)-2-(2,2-difluoroethyl)-3-methyl-2,3,4,9-tetrahydro-1H-pyrido[3,4-b]indol-1-yl)pyrimidin-2-yl)-1-oxa-8-azaspiro[4.5]decan-3-yl)methyl)-8-oxo-1,2,3,4,4a,5,8,10-octahydro-9H-pyrazino[1′,2′:4,5][1,4]oxazino[2,3-f]isoindol-9-yl)piperidine-2,6-dione]
ER in T47D cells; T47D cells, 16 hrs treatment
  DC50: < 1 nM
ER in T47D cells
  Dmax: > 75%
ER in MCF-7 cells
  DC50: < 1 nM
  Dmax: 50 to 75%
